A short description of this data set: recombinant barcode read abundance after kanamycin selection (control-corrected) (log10(CPM+1)); higher = more efficient recombination; sequences stand for … in AGTGCAGAGAAAATCGGCCAGTTTTCTCTGCCTGCAGTCCGCATGCCGT…AGATTTATGCAGCGGACTGCCTTTCTCCCAAAGTGATAAACCGGACAGTATCATGGACCGGTTTTCCCGGTAATCCGTATTTGCAAGGTTGGTTTCACT; site = the 11-nt target. Summed up:
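The screen was pooled in E. coli and paired targets with IS621 bridge RNA target-binding loops. Recombination efficiency is taken from barcode counts per million at recombinant junctions, averaged and adjusted against the control. Values, in the form log10(CPM+1), come from duplicate plating on chloramphenicol/ampicillin LB agar or on chloramphenicol/ampicillin/kanamycin with 0.1 mM IPTG.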
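Also: IS621 recombinase and bridge RNA in Escherichia coli cells.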

With “ATTTGCCCTTGGGTTCTAACCTGTTGCCT (site ACTTGCCCTAG)”, the “recombinant barcode read abundance (log10)” value was determined as 0.0987.

With “ATTTGCCCTTGGGTTCTAACCTGTTGCCT (site AGTTGCCCTAG)”, the “recombinant barcode read abundance (log10)” value was found to be 0.0335.

As for “ATTTGCCCTTGGGTTCTAACCTGTTGCCT (site ATTTGCCCTAG)”, the “recombinant barcode read abundance (log10)” value is 0.122.

With “CAAAACTCTTGGGTTCTAACCTGTTGCTT (site CAAAACTCTAA)”, the “recombinant barcode read abundance (log10)” value turned out to be 0.554.

For the sequence “CAAAACTCTTGGGTTCTAACCTGTTGCTT (site TCCCCGGCTCC)”, the “recombinant barcode read abundance (log10)” value was found to be 0.0614.

On to “CAAAAGGCTTGGGTTCTAACCTGTTGCAG (site CAAAAGGCTCT)”, for which the “recombinant barcode read abundance (log10)” value was 1.7.

In the case of “CAAAAGGCTTGGGTTCTAACCTGTTGCAG (site CAAAGGGCTCT)”, the “recombinant barcode read abundance (log10)” value was 0.386.

Regarding “CAAAATTCTTGGGTTCTAACCTGTTGCGT (site CAAAATTCTAC)”, the “recombinant barcode read abundance (log10)” value was found to be 0.703.

As for “CAAAATTCTTGGGTTCTAACCTGTTGCGT (site CAGAATACTAC)”, the “recombinant barcode read abundance (log10)” value was found to be 0.0891.

Regarding “CAAACAGCTTGGGTTCTAACCTGTTGCCT (site CAAACAACTAG)”, the “recombinant barcode read abundance (log10)” value is 0.0742.

As for “CAAACAGCTTGGGTTCTAACCTGTTGCCT (site CAAACACCTAG)”, the “recombinant barcode read abundance (log10)” value was determined as 0.634.

For “CAAACAGCTTGGGTTCTAACCTGTTGCCT (site CAAACAGCTAG)”, the “recombinant barcode read abundance (log10)” value worked out at 0.824.

On to “CAAACAGCTTGGGTTCTAACCTGTTGCCT (site CAAACATCTAG)”, for which the “recombinant barcode read abundance (log10)” value is 0.113.

With “CAAACCGCTTGGGTTCTAACCTGTTGCCT (site CAAACCGCTAG)”, the “recombinant barcode read abundance (log10)” value came to 1.14.

With “CAAACCGCTTGGGTTCTAACCTGTTGCCT (site CCAACCGCTAG)”, the “recombinant barcode read abundance (log10)” value is 0.0884.

For “CAAACCGCTTGGGTTCTAACCTGTTGCCT (site CGAACCGCTAG)”, the “recombinant barcode read abundance (log10)” value came out at 0.356.

Take “CAAACCGCTTGGGTTCTAACCTGTTGCCT (site CTAACCGCTAG)”: the “recombinant barcode read abundance (log10)” value stood at 0.117.

In the case of “CAAACTCCTTGGGTTCTAACCTGTTGCGT (site CAAACTCCTAA)”, the “recombinant barcode read abundance (log10)” value is 0.124.

“CAAACTCCTTGGGTTCTAACCTGTTGCGT (site CAAACTCCTAC)”: the “recombinant barcode read abundance (log10)” value is 0.951.

For “CAAACTCCTTGGGTTCTAACCTGTTGCGT (site CAAACTCCTAG)”, the “recombinant barcode read abundance (log10)” value was determined as 0.0424.

For the sequence “CAAACTCCTTGGGTTCTAACCTGTTGCGT (site CAAACTCCTAT)”, the “recombinant barcode read abundance (log10)” value came out at 0.0528.

With “CAAAGATCTTGGGTTCTAACCTGTTGCCT (site CAAAGATCTAG)”, the “recombinant barcode read abundance (log10)” value was determined as 0.821.

For “CAAAGATCTTGGGTTCTAACCTGTTGCCT (site CCAAGATCTAG)”, the “recombinant barcode read abundance (log10)” value stood at 0.

As to “CAAAGATCTTGGGTTCTAACCTGTTGCCT (site CGAAGATCTAG)”, the “recombinant barcode read abundance (log10)” value was 0.023.

As for “CAAAGATCTTGGGTTCTAACCTGTTGCCT (site CTAAGATCTAG)”, the “recombinant barcode read abundance (log10)” value was determined as 0.165.

As for “CAAATAACTTGGGTTCTAACCTGTTGCCT (site CAAATAACTAG)”, the “recombinant barcode read abundance (log10)” value turned out to be 0.461.

For the sequence “CAAATAACTTGGGTTCTAACCTGTTGCCT (site CAGCTAACTAG)”, the “recombinant barcode read abundance (log10)” value amounted to 0.134.

For “CAAATCCCTTGGGTTCTAACCTGTTGCGT (site ATCGAGTCTTG)”, the “recombinant barcode read abundance (log10)” value worked out at 0.174.

As to “CAAATCCCTTGGGTTCTAACCTGTTGCGT (site CAAATCCCTAC)”, the “recombinant barcode read abundance (log10)” value amounted to 2.08.

With “CAACACTCTTGGGTTCTAACCTGTTGCCT (site CAACACTCTAG)”, the “recombinant barcode read abundance (log10)” value amounted to 2.43.

As for “CAACACTCTTGGGTTCTAACCTGTTGCCT (site CCACACTCTAG)”, the “recombinant barcode read abundance (log10)” value was 0.452.

Turning to “CAACACTCTTGGGTTCTAACCTGTTGCCT (site CGACACTCTAG)”, the “recombinant barcode read abundance (log10)” value is 0.102.

As to “CAACACTCTTGGGTTCTAACCTGTTGCCT (site CTACACTCTAG)”, the “recombinant barcode read abundance (log10)” value was 0.446.

As to “CAACCGTCTTGGGTTCTAACCTGTTGCCT (site CAACCGACTAG)”, the “recombinant barcode read abundance (log10)” value turned out to be 0.

For “CAACCGTCTTGGGTTCTAACCTGTTGCCT (site CAACCGCCTAG)”, the “recombinant barcode read abundance (log10)” value is 0.439.

Consider “CAACCGTCTTGGGTTCTAACCTGTTGCCT (site CAACCGGCTAG)”, for which the “recombinant barcode read abundance (log10)” value stood at 0.0528.

On to “CAACCGTCTTGGGTTCTAACCTGTTGCCT (site CAACCGTCTAG)”, for which the “recombinant barcode read abundance (log10)” value was 1.33.

As for “CAACGACCTTGGGTTCTAACCTGTTGCCT (site AAACGACCTAG)”, the “recombinant barcode read abundance (log10)” value came out at 0.172.

Take “CAACGACCTTGGGTTCTAACCTGTTGCCT (site CAACGACCTAG)”: the “recombinant barcode read abundance (log10)” value was determined as 1.75.

“CAACGACCTTGGGTTCTAACCTGTTGCCT (site GAACGACCTAG)”: the “recombinant barcode read abundance (log10)” value was found to be 0.171.

Turning to “CAACGACCTTGGGTTCTAACCTGTTGCCT (site TAACGACCTAG)”, the “recombinant barcode read abundance (log10)” value was 0.166.

For “CAACGAGCTTGGGTTCTAACCTGTTGCCG (site CAACGAGCTCG)”, the “recombinant barcode read abundance (log10)” value came out at 0.506.

For “CAACGAGCTTGGGTTCTAACCTGTTGCCG (site CACCGAGCTCG)”, the “recombinant barcode read abundance (log10)” value was found to be 0.186.

As to “CAACGAGCTTGGGTTCTAACCTGTTGCCG (site CAGCGAGCTCG)”, the “recombinant barcode read abundance (log10)” value amounted to 0.

As to “CAACGAGCTTGGGTTCTAACCTGTTGCCG (site CATCGAGCTCG)”, the “recombinant barcode read abundance (log10)” value turned out to be 0.218.

As for “CAACGGCCTTGGGTTCTAACCTGTTGCCT (site CAAAGGCCTAG)”, the “recombinant barcode read abundance (log10)” value turned out to be 0.

Turning to “CAACGGCCTTGGGTTCTAACCTGTTGCCT (site CAACGGCCTAG)”, the “recombinant barcode read abundance (log10)” value worked out at 0.796.

Consider “CAACGGCCTTGGGTTCTAACCTGTTGCCT (site CAAGGGCCTAG)”, for which the “recombinant barcode read abundance (log10)” value is 0.55.

Turning to “CAACGGCCTTGGGTTCTAACCTGTTGCCT (site CAATGGCCTAG)”, the “recombinant barcode read abundance (log10)” value came out at 0.0566.

For the sequence “CAACTAGCTTGGGTTCTAACCTGTTGCAT (site CAACTAGCTAT)”, the “recombinant barcode read abundance (log10)” value stood at 0.691.

Turning to “CAACTAGCTTGGGTTCTAACCTGTTGCAT (site TTGTACACTGA)”, the “recombinant barcode read abundance (log10)” value is 0.028.

In the case of “CAAGCACCTTGGGTTCTAACCTGTTGCTT (site CAAACACCTAA)”, the “recombinant barcode read abundance (log10)” value worked out at 0.121.

As for “CAAGCACCTTGGGTTCTAACCTGTTGCTT (site CAACCACCTAA)”, the “recombinant barcode read abundance (log10)” value came out at 0.0852.

For “CAAGCACCTTGGGTTCTAACCTGTTGCTT (site CAAGCACCTAA)”, the “recombinant barcode read abundance (log10)” value stood at 0.187.

As for “CAAGCACCTTGGGTTCTAACCTGTTGCTT (site CAATCACCTAA)”, the “recombinant barcode read abundance (log10)” value worked out at 0.338.

As to “CAAGGTCCTTGGGTTCTAACCTGTTGCGG (site CAAGGTCCTCC)”, the “recombinant barcode read abundance (log10)” value came out at 2.68.

Consider “CAAGGTCCTTGGGTTCTAACCTGTTGCGG (site GTTACCTCTAG)”, for which the “recombinant barcode read abundance (log10)” value was 0.194.

Consider “CAAGTGGCTTGGGTTCTAACCTGTTGCCT (site CAAGTAGCTAG)”, for which the “recombinant barcode read abundance (log10)” value came to 0.417.

On to “CAAGTGGCTTGGGTTCTAACCTGTTGCCT (site CAAGTCGCTAG)”, for which the “recombinant barcode read abundance (log10)” value was found to be 0.0501.

Regarding “CAAGTGGCTTGGGTTCTAACCTGTTGCCT (site CAAGTGGCTAG)”, the “recombinant barcode read abundance (log10)” value was determined as 1.21.

As for “CAAGTGGCTTGGGTTCTAACCTGTTGCCT (site CAAGTTGCTAG)”, the “recombinant barcode read abundance (log10)” value is 0.721.

Turning to “CAATATCCTTGGGTTCTAACCTGTTGCCT (site CAATATCCTAG)”, the “recombinant barcode read abundance (log10)” value came to 1.09.

On to “CAATATCCTTGGGTTCTAACCTGTTGCCT (site CACTATCCTAG)”, for which the “recombinant barcode read abundance (log10)” value is 0.0197.

For the sequence “CAATATCCTTGGGTTCTAACCTGTTGCCT (site CAGTATCCTAG)”, the “recombinant barcode read abundance (log10)” value amounted to 0.143.

Regarding “CAATATCCTTGGGTTCTAACCTGTTGCCT (site CATTATCCTAG)”, the “recombinant barcode read abundance (log10)” value was 0.0807.

In the case of “CAATCTACTTGGGTTCTAACCTGTTGCCT (site CAACCTACTAG)”, the “recombinant barcode read abundance (log10)” value was 0.391.

With “CAATCTACTTGGGTTCTAACCTGTTGCCT (site CAATCTACTAG)”, the “recombinant barcode read abundance (log10)” value came out at 0.0558.

With “CAATTACCTTGGGTTCTAACCTGTTGCTT (site CAATTACCTAA)”, the “recombinant barcode read abundance (log10)” value was 0.682.

Consider “CAATTACCTTGGGTTCTAACCTGTTGCTT (site GCGCCCTCTCG)”, for which the “recombinant barcode read abundance (log10)” value came out at 0.0793.

Turning to “CACAAACCTTGGGTTCTAACCTGTTGCAG (site AGATGTGCTAG)”, the “recombinant barcode read abundance (log10)” value is 0.054.

As for “CACAAACCTTGGGTTCTAACCTGTTGCAG (site CACAAACCTCT)”, the “recombinant barcode read abundance (log10)” value was 1.17.

As for “CACAAGTCTTGGGTTCTAACCTGTTGCAG (site CACAAGTCTCG)”, the “recombinant barcode read abundance (log10)” value came to 0.519.

Regarding “CACAAGTCTTGGGTTCTAACCTGTTGCAG (site CACAAGTCTCT)”, the “recombinant barcode read abundance (log10)” value turned out to be 2.

In the case of “CACAAGTCTTGGGTTCTAACCTGTTGCCG (site CACAAGTCTCG)”, the “recombinant barcode read abundance (log10)” value was determined as 0.657.

For the sequence “CACAAGTCTTGGGTTCTAACCTGTTGCCG (site CACAAGTCTCT)”, the “recombinant barcode read abundance (log10)” value amounted to 0.182.

With “CACACACCTTGGGTTCTAACCTGTTGCGT (site CACAATCCTAC)”, the “recombinant barcode read abundance (log10)” value was 0.189.

For the sequence “CACACACCTTGGGTTCTAACCTGTTGCGT (site CACACACCTAC)”, the “recombinant barcode read abundance (log10)” value was determined as 2.86.

The record behind these values is the supplement of paper PMC11208160.
